The record followed here is ChEMBL document CHEMBL5143507, “Small Molecule Kinase Inhibitor Drugs (1995-2021): Medical Indication, Pharmacology, and Synthesis” (J Med Chem, 2022).

The target in experiment [1] is Epidermal growth factor receptor (Homo sapiens, UniProt P00533). Kind of experiment: Inhibition of N-terminal GST fused EGFR (668 to 1091 residues) (unknown origin) using poly (Glu-Tyr) E4Y1 peptide as substrate incubated for 2 hrs by ADP-Glo reagent method. (In general: ADP-Glo turns the ADP formed in a reaction into a luminescent signal.)
Experiment [2] has as its target Receptor tyrosine-protein kinase erbB-2 (Homo sapiens, UniProt P04626). Kind of experiment: Inhibition of N-terminal GST fused HER2 (679 to 1255 residues) (unknown origin) using poly (Glu-Tyr) E4Y1 peptide as substrate measured after 4 hrs by ADP-Glo reagent method.

The IC50 is the concentration needed to halve the response being measured.

Chain of Epidermal growth factor receptor (P00533 whole entry, the tested form may be a part): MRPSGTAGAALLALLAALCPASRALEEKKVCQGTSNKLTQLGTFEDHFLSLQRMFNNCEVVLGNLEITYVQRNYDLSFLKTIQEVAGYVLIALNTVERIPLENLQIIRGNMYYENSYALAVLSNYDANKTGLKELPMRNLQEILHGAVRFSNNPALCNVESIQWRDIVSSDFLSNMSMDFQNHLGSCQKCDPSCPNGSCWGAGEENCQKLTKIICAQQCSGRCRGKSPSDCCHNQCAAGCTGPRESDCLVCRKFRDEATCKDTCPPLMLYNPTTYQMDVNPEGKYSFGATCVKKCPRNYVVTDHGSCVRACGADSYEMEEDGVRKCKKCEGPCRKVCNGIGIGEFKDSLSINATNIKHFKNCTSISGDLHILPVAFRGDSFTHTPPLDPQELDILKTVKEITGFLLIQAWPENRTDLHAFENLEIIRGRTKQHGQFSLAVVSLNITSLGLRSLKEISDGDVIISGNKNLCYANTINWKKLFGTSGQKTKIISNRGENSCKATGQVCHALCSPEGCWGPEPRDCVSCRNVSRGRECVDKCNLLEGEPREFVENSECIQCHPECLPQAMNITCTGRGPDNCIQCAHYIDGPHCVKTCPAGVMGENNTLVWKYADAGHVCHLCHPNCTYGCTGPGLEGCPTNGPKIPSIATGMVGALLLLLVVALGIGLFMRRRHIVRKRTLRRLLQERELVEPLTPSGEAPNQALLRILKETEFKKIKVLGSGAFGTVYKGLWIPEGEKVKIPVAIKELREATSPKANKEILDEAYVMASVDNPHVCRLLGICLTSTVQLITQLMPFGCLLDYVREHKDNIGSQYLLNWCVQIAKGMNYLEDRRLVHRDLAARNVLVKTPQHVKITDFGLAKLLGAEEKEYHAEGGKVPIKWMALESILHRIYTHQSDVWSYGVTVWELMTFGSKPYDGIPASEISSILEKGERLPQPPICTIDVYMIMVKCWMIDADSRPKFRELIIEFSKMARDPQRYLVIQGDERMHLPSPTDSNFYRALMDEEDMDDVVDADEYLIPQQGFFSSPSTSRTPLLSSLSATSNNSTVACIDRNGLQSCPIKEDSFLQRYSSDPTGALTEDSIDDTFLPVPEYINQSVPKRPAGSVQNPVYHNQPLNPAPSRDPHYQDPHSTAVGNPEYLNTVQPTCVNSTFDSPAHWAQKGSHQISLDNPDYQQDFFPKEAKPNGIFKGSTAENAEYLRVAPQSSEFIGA
Chain of Receptor tyrosine-protein kinase erbB-2 (P04626 whole entry, the tested form may be a part): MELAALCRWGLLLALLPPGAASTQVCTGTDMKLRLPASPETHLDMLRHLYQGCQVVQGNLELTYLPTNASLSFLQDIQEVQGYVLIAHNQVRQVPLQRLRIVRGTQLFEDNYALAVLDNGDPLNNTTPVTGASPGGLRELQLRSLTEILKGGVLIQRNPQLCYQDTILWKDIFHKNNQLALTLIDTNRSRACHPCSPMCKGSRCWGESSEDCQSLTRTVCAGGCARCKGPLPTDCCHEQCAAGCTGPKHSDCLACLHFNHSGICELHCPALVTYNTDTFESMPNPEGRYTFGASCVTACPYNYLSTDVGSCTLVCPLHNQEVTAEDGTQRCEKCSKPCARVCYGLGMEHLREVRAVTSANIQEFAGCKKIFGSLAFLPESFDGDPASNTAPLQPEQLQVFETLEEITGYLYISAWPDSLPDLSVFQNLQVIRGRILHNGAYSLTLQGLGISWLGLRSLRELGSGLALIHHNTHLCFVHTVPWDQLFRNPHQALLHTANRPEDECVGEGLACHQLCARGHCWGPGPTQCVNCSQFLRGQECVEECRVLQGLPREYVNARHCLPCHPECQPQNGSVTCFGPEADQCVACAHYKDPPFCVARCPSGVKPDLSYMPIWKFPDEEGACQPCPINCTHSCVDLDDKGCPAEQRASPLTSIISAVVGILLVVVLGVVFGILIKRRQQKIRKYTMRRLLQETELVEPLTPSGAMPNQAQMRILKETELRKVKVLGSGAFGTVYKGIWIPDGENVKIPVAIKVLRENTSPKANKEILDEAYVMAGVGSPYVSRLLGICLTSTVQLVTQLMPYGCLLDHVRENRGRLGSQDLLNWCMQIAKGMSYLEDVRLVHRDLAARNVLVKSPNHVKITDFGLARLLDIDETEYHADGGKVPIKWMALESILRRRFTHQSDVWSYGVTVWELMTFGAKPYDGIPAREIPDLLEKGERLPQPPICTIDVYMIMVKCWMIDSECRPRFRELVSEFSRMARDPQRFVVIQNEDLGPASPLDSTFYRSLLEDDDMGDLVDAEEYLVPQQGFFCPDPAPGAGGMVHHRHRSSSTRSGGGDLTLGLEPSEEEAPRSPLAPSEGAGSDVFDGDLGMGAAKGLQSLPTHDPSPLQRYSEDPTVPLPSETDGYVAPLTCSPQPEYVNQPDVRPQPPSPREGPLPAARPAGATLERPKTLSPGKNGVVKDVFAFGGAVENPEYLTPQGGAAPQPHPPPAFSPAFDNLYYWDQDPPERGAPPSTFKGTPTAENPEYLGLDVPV

With `Cc1cc(Nc2ncnc3ccc(NC4=NC(C)(C)CO4)cc23)ccc1Oc1ccn2ncnc2c1` [TUCATINIB], the IC50 in experiment [1] was 449 nM; in experiment [2], 6.9 nM.
